Source: patent US20230149358A1, “COMBINATION CANCER THERAPY WITH PENTAAZA MACROCYCLIC RING COMPLEX AND HORMONE THERAPY AGENT” (Galera Labs, LLC, priority 2020, published 2023)
“Also recorded” adds a separate entry of the source.

What was measured:
[1] = test system: MCF7-MnSOD^K68Q cells; test: Ki-67 staining, MCF7-MnSOD^K68Q cells; type: cell-based, human; details: 5 μM GC4419 and/or 1 μM 4-hydroxy-Tam for 5 days
Method: (§1) MCF7-MnSOD^K68Q cells (in FIGS. 17a and 17b) and T47D-MnSOD^K68Q cells (in FIGS. 17c and 17d) were treated with 5 μM GC4419 and/or 1 μM 4-hydroxy-Tam for 5 days, and then stained for Ki-67 as well as DAPI. Quantifications of average Ki-67 intensity are shown in the bar graphs. In FIG. 17e, MCF7 and MCF7-HTR cells were implanted into both hind limbs of nude mice and tumor volumes were measured every 3 days for 6 weeks and the number of tumors that successfully implanted versus the total number of mice infected with MCF7 and MCF7-HTR as well as the average tumor weight and tumor size are shown. Representative images are shown. All experiments were done in triplicate. Error bars represent ±1 SEM. ***p<0.001.
(§2) Cells seeded on glass coverslips were fixed in 4% paraformaldehyde and then blocked with 1% BSA and 10% normal goat serum in 1×PBS. Cells were incubated with anti-Ki-67 (c-bioscience) antibody in 1×PBS followed by incubation with goat anti-rabbit IgG conjugated with Alexa Fluor 647 (Invitrogen) in 1×PBS with 5% goat serum. Cells were washed in 1×PBS, mounted, and imaged with a fluorescence microscope. Fluorescence images were captured using a laser scanning confocal microscope (Nikon A1R). The paired images in all the figures were collected at the same gain and offset settings. Post-collection processing was applied uniformly to all paired images.

[2] = test system: MCF7-Cispl-R cells; test: Cisplatin sensitivity, MCF7-Cispl-R cells; type: cell-based, human; details: MCF7-Cispl-R treated with GC4419
[3] = test system: T47D-HTR cells; test: Clonogenic cell survival, hydroxy-Tam-resistant T47D-HTR cells; type: cell-based, human; details: 5 μM GC4419 for 5 days
Method: Clonogenic cell survival assay. For the clonogenic survival analysis, exponentially growing cells were replated using appropriate dilutions, and clonogenic survival was evaluated after 14 days in regular growth medium. Cells were stained with crystal violet, and colonies of >50 cells were counted and utilized to calculate clonogenic survival^46.
To test parameters indicative of oxidative stress, a clonogenic assay with hydroxy-Tam and antioxidant treatments was performed. Cells were plated at a density of 50,000 cells per 60-mm dish and treated with 1 μM hydroxy-Tam (Sigma) and 5 μM GC4419 (Galera Therapeutics) for a total of 120 h. This protocol was repeated with a fresh medium change every 24 h for 5 days. On day 6, the cells were trypsinized, counted, and replated in control medium using appropriate dilutions, and clonogenic survival was evaluated.

[4] = test system: rat; details: rat model; cited from earlier work
[5] = test system: LNCaP-MnSOD^K68Q cells; test: Clonogenic cell survival, LNCaP-MnSOD^K68Q cells; type: cell-based; details: ENZ with GC4419 (20 μM) for 5 days
Method: (§3) In FIG. 21(a), clonogenic cell survival experiments were performed in LNCaP-ENZR (left two bars) and LNCaP-MnSOD^K68Q (right two bars) treated with ENZ, with or without GC4419 (20 μM) for 5 days. […] Tumor volumes were measured three times a week for 46 days. For each group n=10. Error bars ±1 SEM. All experiments done in triplicate. **p<0.01.

[6] = test system: MCF7-Cispl-R cells; test: Cell ROS levels, MCF7-Cispl-R cells; type: cell-based, human; details: GC4419 exposure; data not shown
Method: FIGS. 27a-27c are an image and graphs showing that MnSOD-Ac-K68/HIF2α dysregulation directs PanR (resistance to cancer therapeutics). […] In FIG. 27b, ROS was measured in MCF7-Cispl-R cells, compared with MCF7 cells, using an Amplex Red assay. In FIG. 27c, MCF7 and MCF7-MnSOD^K68Q cells were measured by clonogenic cell survival assays, without and with Cispl exposure, and infected with scrambled (C) or HIF2α shRNA. All experiments were done in triplicate. Error bars are ±1 SEM. * p<0.05.
(§4) Aberrant HIF2α levels promote lineage plasticity, leading to chemoresistance and metastasis. […] Thus, MCF7 cells were selected for cisplatin resistance (Cispl-R) by 3 months of exposure to 5 μM Cispl.

[7] = test system: MCF-7-MnSOD^K68Q cells; test: Clonogenic cell survival after 5 Gy ionizing radiation, MCF-7-MnSOD^K68Q cells; type: cell-based, human; details: 5 μM GC4419 for 5 days, then 5 Gy ionizing radiation
Method: FIGS. 30a-30b are plots showing that expression of MnSOD^K68Q induces ionizing radiation resistance (IRR) in MCF7 cells. […] All experiments were done in triplicate. Error bars represent±1 SEM. ***p<0.001. Data were analyzed by a t-test.
To determine if the MnSOD-K68-Ac-ROS axis plays a role in IRR, it was hypothesized that MnSOD acetylation might play a role in how tumor cells are reprogrammed to produce a IRR phenotype. To address this idea, an established tumor cell line MCF-7 was infected with lenti-MnSOD^K68Q to induce MnSOD^K68Q expression, which was validated. MCF-7-MnSOD^WT and MCF-7-MnSOD^K68Q cells were treated without or with 5 Gy of IR.

[8] = test system: head-and-neck cancer patients; details: head-and-neck cancer patients undergoing chemoradiation therapy; cited from earlier work
[9] = test system: LNCaP-ENZR cells; test: Clonogenic cell survival, LNCaP-ENZR cells; type: cell-based; details: ENZ with GC4419 (20 μM) for 5 days
Method: as §3
To address whether there is a link between MnSOD-K68-Ac and ENZR, two ENZ sensitive prostate tumor cell lines were used, LNCaP or 22RV1, which were cultured in 5 μM of ENZ for 3 weeks and then continuously grown at 10 μM, using an established method^91 to select for ENZR cells. […] Since K68-Ac alters the surface charge at the MnSOD tetramerization interface, we assessed the oligomerization state of MnSOD in LNCaP-ENZR cells.

[10] = test system: T47D-MnSOD^K68Q cells; test: Ki-67 staining, T47D-MnSOD^K68Q cells; type: cell-based, human; details: 5 μM GC4419 and/or 1 μM 4-hydroxy-Tam for 5 days
Method: as §1, §2

[11] = test system: MCF7-Cispl-R cells; test: SOX2 and OCT4 levels, MCF7-Cispl-R cells; type: cell-based, human; details: MCF7-Cispl-R treated with GC4419; data not shown
Method: as §4

[12] = test system: LNCaP-MnSOD^K68Q xenografts; test: LNCaP-MnSOD^K68Q hindlimb xenograft growth in nude mice; type: in vivo; details: male nude mice; GC4419 10 mg/kg once per week, ENZ 25 mg/kg/day; 46 days
Method: as §3
Thus, it was surmised that restoring SOD activity, using the pentaaza macrocyclic ring complex GC4419, an agent that chemically detoxifies superoxide, would reverse/convert the ENZR to a sensitive phenotype. […] The dose and pharmacokinetics for GC4419 is based on data for murine models^92-93.

[13] = test system: Tam resistant as well as loss of Sirt3 tumor cell lines; test: In vitro Tam resistance, Tam resistant and loss of Sirt3 tumor cell lines; type: cell-based; details: data not shown

Structure (SMILES): [Cl][Mn][Cl].c1cc2nc(c1)CN[C@H]1CCCC[C@@H]1NCCN[C@H]1CCCC[C@@H]1NC2 [GC4419]
- Ki-67 staining [1]: reversed the increase in Ki-67 IHC staining; also recorded: decreased Ki-67 levels
- cisplatin resistance phenotype [2]: converted the Cispl-R cells to a sensitive phenotype
- sensitivity to hydroxy-Tam (clonogenic cell survival) [3]: became sensitive to hydroxy-Tam
- VEGFr inhibitor-induced pulmonary disease [4]: attenuate VEGFr inhibitor-induced pulmonary disease
- ENZ resistance phenotype (clonogenic cell survival) [5]: converted to a sensitive phenotype; also recorded: reversed the ENZR
- cell ROS levels [6]: decreased cell ROS levels
- ionizing radiation resistance (IRR) phenotype, clonogenic cell survival [7]: reversed the IRR phenotype
- oral mucositis [8]: reduce oral mucositis
- tumor cell survival in the presence of ENZ (clonogenic) [9]: significant decrease in tumor cell survival in the presence of ENZ; also recorded: reversed the ENZR
- Ki-67 staining [10]: reversed the increase in Ki-67 IHC staining; also recorded: decreased Ki-67 levels
- SOX2 and OCT4 levels [11]: decreased SOX2 and OCT4 levels
- xenograft growth (tumor volume) [12]: significant inhibition of xenograft growth
- Tam resistance in vitro [13]: reverses Tam resistance
